Test results: patent publication US20020110808A1, “Toxicant-induced differential gene expression” (priority 2000, published 2002)
Read-outs that look alike come from different tables or passages of the source. Each block holds one compound with its values, some of them ahead of it.

How the values were obtained:
HepG2 cells [1] = assay: BrdU incorporation cell proliferation assay; format: cell-based
Procedure: HepG2 cells (see e.g., Aden et al., Nature 282:615-616 (1979)) (ATCC HB-8065) were maintained in DMEM/F-12 medium with 10% fetal bovine serum and 1% antibiotic/antimycotic. For routine culturing and mRNA preps, cells were grown in 75 cm^2 flasks and split every 4-5 days. For plate assays, cells were plated in 96-well microtiter plates at 1×10^5 cells per well in 100 μl of growth medium.
Depending on the desired exposure time, cell treatments began 3 or 4 days after splitting or plating. At this time, the cells were near or at confluency. […] Cell treatments were at 37° C.
Uptake of 5-bromo-2′-deoxyuridine (BrdU) was measured using the Cell Proliferation ELISA kit from Boehringer-Mannheim (Indianapolis, Ind.).
Cell proliferation assays based on measurement of BrdU incorporation were performed according to the manufacturer's instructions (Boehringer Mannheim “Cell Proliferation ELISA Kit”).

HepG2 cells [2] = assay: Quantitative RT-PCR (TaqMan); format: cell-based, human
Procedure: Primers and probes were designed using Primer Express software (Perkin-Elmer). TaqMan probes (Perkin-Elmer) were synthesized with reporter dye 6FAM at the 5′ end and quencher TAMRA at the 3′ end. RNA template concentrations were determined by absorbance at 260 nm. Reactions were performed as described […], using 2.5 ng RNA, 300 nM each PCR primer, and 150 nM Taqman probes. Control reactions were set up with reverse transcriptase or template omitted. Reactions were run on an ABI 7700 instrument (Perkin-Elmer) using the following cycling conditions: reverse transcription at 48° C. for 30 min; inactivation of reverse transcriptase at 95° C. for 10 min; 40 cycles of denaturation at 94° C. for 15 sec and extension at 60° C. for 1 min. Changes in expression were calculated from the displacement of the amplification curve in the treated sample relative to the control.

HepG2 cells [3] = assay: Dot blot array expression assay; settings: for Number of 27 unconfirmed or non-matching clones showing an expression change: two-fold threshold
Procedure: The quality of the PCR reactions was assessed by agarose gel electrophoresis. Human genomic DNA (Clontech) and PCR products were robotically dotted in 100 nl aliquots onto positively-charged nylon membranes using the BioDot instrument (Cartesian Technologies, Inc.). After uv-crosslinking, the membranes were rinsed in 2× SSC and allowed to air-dry. Prior to addition of labeled cDNA probes, membranes were washed in boiling 1% SDS, rinsed with 6× SSC, and incubated in 5 mL of 42° C. Microhyb solution (Research Genetics) for 2 hr. Ten minutes prior to addition of the probes, the Microhyb solution was replaced with an equal amount of fresh 42° C. Microhyb solution containing denatured human Cot-1 DNA (Gibco BRL) and poly(dA) primer (Research Genetics) (both at final concentrations of 1 ng/μl).
For each reverse transcription reaction, 2 μg of mRNA was incubated with oligo(dT) primer (200 ng/μl) at 70° C. for 10 minutes. Tubes were chilled and spun briefly. The following reagents (with the final concentrations in parentheses) were added: first strand buffer (1×), DTT (10 mM), dNTP mix (1 mM each of dATP, dGTP, dTTP), [α-^33P]dCTP (3.3 μCi/μl) and Superscript II Reverse Transcriptase (10 units/μL). The samples were kept at 37° C. for 1.5 hr. Unincorporated nucleotides were removed by spinning the reaction mixture through a G-50 column. […] Probe quality was assessed by electrophoresis on a 10% denaturing polyacrylamide minigel. Denatured probes were added directly to the Microhyb solution and hybridized overnight at 42° C. Membranes were washed twice under each of the following conditions: (1) 2× SSC/0.1% SDS at room temperature, 5 min; (2) 0.2× SSC/0.1% SDS at room temperature, 5 min; (3) 0.2× SSC/0.1% SDS at 42° C., 15 min, (4) 0.1× SSC/0.1% SDS at 68° C., 15 min. Membranes were then rinsed briefly in 2× SSC at room temperature, covered with Saran wrap, and exposed to storage phoshpor screens. After three days, screens were scanned using a Storm phosphorimager (Molecular Dynamics). Images were analyzed using ImageQuant software (Molecular Dynamics).
We employed a rapid dot blot assay as a secondary screen for gene expression changes. We tested each of the unique clones against each of the three treatments. […] For these clones, the dot blot assay functioned not as a confirmation assay but as an initial screen for differential expression. Dot blots were prepared by robotically arraying subclone-derived PCR products in quadruplicate onto positively charged nylon membranes. […] In general, each dot consisted of over 80 ng of PCR product, as estimated by inspection of the PCR reactions run on agarose gels. This high quantity of DNA ensured that saturation of spots, with consequent loss of quantitation, would not occur. Spots of genomic DNA were included on each filter to allow normalization between control and treated sample intensities.

[4] = 24 hr, 20 mM APAP, 16 mM CAF, 100 mM THI

Structure (SMILES): CC(=N)S [thioacetamide]
- IC50 (HepG2 cells [1]; Homo sapiens, HepG2, read-out: IC50, BrdU incorporation in HepG2 cells): 57 mM
- Expression ratio (treated/control), RT-PCR: MT-1G (H53340) (HepG2 cells [2]; Thioacetamide (24 hr)): 3.1
- Expression ratio (treated/control), RT-PCR: MT-2 (R16596) (HepG2 cells [2]; Thioacetamide (24 hr)): 7.4
- Expression ratio (treated/control), RT-PCR: MT-1H (H77766) (HepG2 cells [2]; Thioacetamide (24 hr), not detectable in control samples): >1000
- Fold change, down-regulation: EST (AA283846), clone 90-1 (HepG2 cells [3]; 24 hr treatments): 7.7 fold
- Fold change, down-regulation: EST (AA805555), clone 83 (HepG2 cells [3]; 24 hr treatments): 11.1 fold
- Fold change, down-regulation: EST (AI310515), clone 32-2 (HepG2 cells [3]; 24 hr treatments): 9.1 fold
- Fold change, down-regulation: Lactate dehydrogenase A, clone A24-1 (HepG2 cells [3]; 24 hr treatments): 5.0 fold
- Fold change, down-regulation: Pyruvate dehydrogenase E1-beta subunit, clone A123 (HepG2 cells [3]; 24 hr treatments): 12.5 fold
- Fold change, down-regulation: Transforming growth factor-beta type III receptor, clone A155-6 (HepG2 cells [3]; 24 hr treatments): 3.0 fold
- Fold change, up-regulation: Activating transcription factor 4, clone A108D (HepG2 cells [3]; 24 hr treatments): 3.8 fold
- Fold change, up-regulation: EST (N22016), clone AI24-6 (HepG2 cells [3]; 24 hr treatments): up
- Fold change, up-regulation: EST, similar to ubiquitin hydrolase, clone A130-3 (HepG2 cells [3]; 24 hr treatments): up
- Dot blot expression ratio (treated/control): 90-kDa heat-shock protein, clone 23 (HepG2 cells [3]; [4]): 0.96 n
- Dot blot expression ratio (treated/control): ABC transporter, clone 31-4 (HepG2 cells [3]; [4]): 0.28
- Dot blot expression ratio (treated/control): AH antigen, clone A136-1 (HepG2 cells [3]; [4]): 0.00
- Dot blot expression ratio (treated/control): Activating transcription factor 4, clone A108D (HepG2 cells [3]; [4]): 3.77
- Dot blot expression ratio (treated/control): Apolipoprotein B-100, clone A124-1 (HepG2 cells [3]; [4]): 0.76
- Dot blot expression ratio (treated/control): Atopy related autoantigen CALC, clone A182-1 (HepG2 cells [3]; [4]): 0.66
- Dot blot expression ratio (treated/control): Centromere protein E (CENPE), clone A187-5 (HepG2 cells [3]; [4]): 0.65
- Dot blot expression ratio (treated/control): Centromere protein F (400 kD) (CENPF kinetochore protein), clone A136 (HepG2 cells [3]; [4]): 1.98
- Dot blot expression ratio (treated/control): Cu/Zn superoxide dismutase (SOD), clone A94-4 (HepG2 cells [3]; [4]): 0.91
- Dot blot expression ratio (treated/control): DB1, clone A176-3 (HepG2 cells [3]; [4]): 0.36
- Dot blot expression ratio (treated/control): DNA topoisomerase II binding protein, clone A172 (HepG2 cells [3]; [4]): 0.49
- Dot blot expression ratio (treated/control): E1B 19K/Bcl-2-binding protein Nip3, clone 81-6 (HepG2 cells [3]; [4]): 0.23 c
- Dot blot expression ratio (treated/control): EST (AA283846), clone 90-1 (HepG2 cells [3]; [4]): 0.13 c
- Dot blot expression ratio (treated/control): EST (AA430551), clone A160-5 (HepG2 cells [3]; [4]): 0.17
- Dot blot expression ratio (treated/control): EST (AA581887), clone 102-2 (HepG2 cells [3]; [4]): 1.80 n
- Dot blot expression ratio (treated/control): EST (AA581887), clone A102-1 (HepG2 cells [3]; [4]): 1.78 n
- Dot blot expression ratio (treated/control): EST (AA805555), clone 83 (HepG2 cells [3]; [4]): 0.09 c
- Dot blot expression ratio (treated/control): EST (AC007400), clone A95-1 (HepG2 cells [3]; [4]): 1.07
- Dot blot expression ratio (treated/control): EST (AI049999), clone A104-5 (HepG2 cells [3]; [4]): 0.89
- Dot blot expression ratio (treated/control): EST (AI310515), clone 32-2 (HepG2 cells [3]; [4]): 0.11 c
- Dot blot expression ratio (treated/control): EST (N22016), clone A124-6 (HepG2 cells [3]; [4]): up
- Dot blot expression ratio (treated/control): EST (N26592), clone 101 (HepG2 cells [3]; [4]): 0.26 c
- Dot blot expression ratio (treated/control): EST (N39662), clone A99-1 (HepG2 cells [3]; [4]): 0.50
- Dot blot expression ratio (treated/control): EST (W44772), clone 87 (HepG2 cells [3]; [4]): 1.11 n
- Dot blot expression ratio (treated/control): EST, bithoraxoid-like protein, clone A183-1 (HepG2 cells [3]; [4]): 0.42
- Dot blot expression ratio (treated/control): EST, similar to Long-chain acyl-coenzyme A synthetase, clone A105-7 (HepG2 cells [3]; [4]): 0.90
- Dot blot expression ratio (treated/control): EST, similar to Ubiquinol cytochrome C reductase core protein 2, clone 93 (HepG2 cells [3]; [4]): 0.38 c
- Dot blot expression ratio (treated/control): EST, similar to arachidonate 15-lipoxygenase, clone 84 (HepG2 cells [3]; [4]): 0.75 n
- Dot blot expression ratio (treated/control): EST, similar to ubiquitin hydrolase, clone A130-3 (HepG2 cells [3]; [4]): up
- Dot blot expression ratio (treated/control): Esterase D/formylglutathione hydrolase, clone 24 (HepG2 cells [3]; [4]): 0.31 c
- Dot blot expression ratio (treated/control): G1 to S phasetransition 1 (GSPT1), clone 103-2 (HepG2 cells [3]; [4]): 1.57 n
- Dot blot expression ratio (treated/control): Glucose transporter pseudogene, clone 23-1 (HepG2 cells [3]; [4]): 0.34
- Dot blot expression ratio (treated/control): High mobility group 2 protein (HMG-2), clone A111-8 (HepG2 cells [3]; [4]): 1.12
- Dot blot expression ratio (treated/control): Human Alu-Sc subfamily consensus sequence, clone A96-4 (HepG2 cells [3]; [4]): 0.84
- Dot blot expression ratio (treated/control): Human transposon-like element mRNA, clone A135-3 (HepG2 cells [3]; [4]): 0.59
- Dot blot expression ratio (treated/control): Interleukin 6 signal transducer (gp130, oncostatin M receptor), clone 65-1 (HepG2 cells [3]; [4]): 0.96 n
- Dot blot expression ratio (treated/control): Ku autoimmune antigen, clone 27-2 (HepG2 cells [3]; [4]): 0.47 c
- Dot blot expression ratio (treated/control): Lactate dehydrogenase A, clone A24-1 (HepG2 cells [3]; [4]): 0.20 c
- Dot blot expression ratio (treated/control): Lipoprotein-associated coagulation inhibitor, clone A94-3 (HepG2 cells [3]; [4]): 0.27 c
- Dot blot expression ratio (treated/control): Liver microsomal UDP-glucuronosyltransferase (UDPGT), clone A128-7 (HepG2 cells [3]; [4]): 0.70
- Dot blot expression ratio (treated/control): Lsm5 protein, clone A115-5 (HepG2 cells [3]; [4]): 0.39
- Dot blot expression ratio (treated/control): MEGF9, clone 74 (HepG2 cells [3]; [4]): 0.96 n
- Dot blot expression ratio (treated/control): Myristoyl CoA:protein N-myristoyltransferase, clone 82 (HepG2 cells [3]; [4]): 0.41
- Dot blot expression ratio (treated/control): NADH dehydrogenase subunit 2, clone A131-1 (HepG2 cells [3]; [4]): 1.45
- Dot blot expression ratio (treated/control): Nucleosome assembly protein 1-1ike 1 (NAP1L1), clone 20-2 (HepG2 cells [3]; [4]): 0.92 n
- Dot blot expression ratio (treated/control): PPP1R5 gene, clone 30-5 (HepG2 cells [3]; [4]): 0.17 c
- Dot blot expression ratio (treated/control): T-complex polypeptide 1, clone 21-2 (HepG2 cells [3]; [4]): 1.03
- Dot blot expression ratio (treated/control): Transforming growth factor-beta type III receptor, clone A155-6 (HepG2 cells [3]; [4]): 0.33
- Dot blot expression ratio (treated/control): cAMP-responsive enhancer binding protein, alt. spliced (CREB327), clone 98 (HepG2 cells [3]; [4]): 0.70 n
- Dot blot expression ratio (treated/control): procollagen-lysine 2-oxoglutarate 5-dioxygenase 2, clone A185 (HepG2 cells [3]; [4]): 0.36
- Dot blot expression ratio (treated/control): pyruvate dehydrogenase El-beta subunit, clone A123 (HepG2 cells [3]; [4]): 0.08
- Number of 27 unconfirmed or non-matching clones showing an expression change (HepG2 cells [3]; 24 hr): 9

- IC50 (HepG2 cells [1]; Homo sapiens, HepG2; read-out: IC50, BrdU incorporation in HepG2 cells): ~5 mM
Structure (SMILES): CC(=O)Nc1ccc(O)cc1 [acetaminophen]
- inhibition at 20000 µM (HepG2 cells [1]; Homo sapiens, HepG2, 24 h; read-out: Inhibition of BrdU uptake (cell proliferation)): 67 to 80%
- TTF-1 interacting peptide 21 down-regulation by RT-PCR (HepG2 cells [2]; acetaminophen, 12 hr): ~2 fold
- Number of 27 unconfirmed or non-matching clones showing an expression change (HepG2 cells [3]; 24 hr): 7
